# What was measured:
# Oryctolagus cuniculus [1] = species: Oryctolagus cuniculus; assay: In vitro inhibition of contraction of rabbit aorta strips measured as pA2 calculated by the method of Van Rossum; type: functional; details: read-out: pA2 (converted)
# [2] = target: T1, Type-1 angiotensin II receptor (Bos taurus, UniProt P25104); assay: Concentration required to inhibit [125I]AII binding to Angiotensin II receptor from membrane fractions of bovine adrenal cortex; type: tissue-based
# T1 sequence (P25104 whole entry): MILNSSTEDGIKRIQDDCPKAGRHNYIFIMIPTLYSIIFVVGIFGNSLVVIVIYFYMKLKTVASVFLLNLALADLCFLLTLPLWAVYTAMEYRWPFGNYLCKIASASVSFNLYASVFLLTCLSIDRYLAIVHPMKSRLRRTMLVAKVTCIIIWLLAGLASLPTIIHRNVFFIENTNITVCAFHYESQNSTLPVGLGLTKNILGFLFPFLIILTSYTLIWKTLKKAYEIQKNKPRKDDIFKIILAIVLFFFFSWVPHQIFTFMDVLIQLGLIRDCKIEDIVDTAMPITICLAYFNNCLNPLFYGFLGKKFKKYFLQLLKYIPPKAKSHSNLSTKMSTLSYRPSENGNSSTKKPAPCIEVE
# Oryctolagus cuniculus [3] = species: Oryctolagus cuniculus; assay: In vitro inhibition of contraction of rabbit aorta strips measured as pD2 calculated by the method of Van Rossum; type: functional
# Rattus norvegicus = assay: Inhibitory effect at a dose of 1mg/gk, po on AII induced pressor response at a dose of 100ng/kg, iv in conscious normotensive rats; type: functional
# Oryctolagus cuniculus [4] = species: Oryctolagus cuniculus; assay: Percent response at a dose of […] on AII induced contraction in isolated rabbit aorta, expressed as percent of maximal response; type: functional
# Oryctolagus cuniculus [5] = species: Oryctolagus cuniculus; assay: Percent response at a dose of 9M on AII induced contraction in isolated rabbit aorta, expressed as percent of maximal response; type: functional
# Oryctolagus cuniculus [6] = species: Oryctolagus cuniculus; assay: Percent response at a dose of 8M on AII induced contraction in isolated rabbit aorta, expressed as percent of maximal response; type: functional
IC50 [2],SMILES,Kb (Oryctolagus cuniculus [1]),pD2 (Oryctolagus cuniculus [3]),Inhibition (Rattus norvegicus),Response (Oryctolagus cuniculus [4]),Response (Oryctolagus cuniculus [5]),Response (Oryctolagus cuniculus [6])
3300 nM,CCCc1cn2nccc2n1Cc1ccc(-c2ccccc2-c2nn[nH]n2)cc1,57.5 nM,–,–,–,–,–
48 nM,CCCc1cn2ncc(C(=O)O)c2n1Cc1ccc(-c2ccccc2-c2nn[nH]n2)cc1,–,9.58,–,–,–,–
36 nM,CCCCc1nc2c(C)cnc(C(=O)O)c2n1Cc1ccc(-c2ccccc2-c2nn[nH]n2)cc1,–,9.16,–,–,–,–
500 nM,CCSc1nc2c(C)sc(C(=O)O)c2n1Cc1ccc(-c2ccccc2-c2nn[nH]n2)cc1,–,9.65,100%,65%,25%,–
1200 nM,CCSc1nc2c(C)scc2n1Cc1ccc(-c2ccccc2-c2nn[nH]n2)cc1,5.5 nM,–,18%,–,85%,85%

# Second part, the molecule before the results:
SMILES,IC50 [2],Kb (Oryctolagus cuniculus [1]),pD2 (Oryctolagus cuniculus [3]),Inhibition (Rattus norvegicus),Response (Oryctolagus cuniculus [4]),Response (Oryctolagus cuniculus [5]),Response (Oryctolagus cuniculus [6])
CCCCc1nc2c(C)cncc2n1Cc1ccc(-c2ccccc2-c2nnn[nH]2)cc1,54 nM,12 nM,–,–,–,–,–
CCOc1nc2ccccc2n1Cc1ccc(-c2ccccc2-c2nnn[nH]2)cc1,390 nM,11.7 nM,–,–,–,–,–
CCOc1nc2cccc(C(=O)O)c2n1Cc1ccc(-c2ccccc2-c2nnn[nH]2)cc1 [CANDESARTAN],–,–,9.97,–,–,–,–

# Reference: ChEMBL document CHEMBL1150444, “A new class of diacidic nonpeptide angiotensin II receptor antagonists” (Bioorg Med Chem Lett, 1994)
